Measured values reported in PMC4671257, “Plasmodium falciparum SERA5 plays a non-enzymatic role in the malarial asexual blood-stage lifecycle” (Molecular Microbiology, 2015).

Target: SERA5 (rSERA5-C) (Plasmodium falciparum, UniProt Q9TY95, S596C)
Experiment: fluorogenic peptide (Abz-LAQAVRSSSR-Dpa) cleavage assay with purified rSERA5-C, progress curves
Type: biochemical

CC(C)C[C@H](NC(=O)[C@H]1O[C@@H]1C(=O)O)C(=O)NCCCCN=C(N)N [E64, trans-epoxysuccinyl-L-leucylamido(4-guanidino)butane] was tested, and the IC50 was 2900 ± 300 nM.
